Earlier results, collected in patent US7521425B2, “Anti-angiogenic compounds” (Covx Technologies Ireland Limited, priority 2005, dated 2009).

Experiments:
m38C2 = conditions: against immobilized BSA-conjugated β-diketone 1, read-out: apparent equilibrium dissociation constant
h38C2 = conditions: against immobilized BSA-conjugated β-diketone 1, read-out: apparent equilibrium dissociation constant

Row | SMILES | Kd (m38C2) | Kd (h38C2)
1 | CC(=O)CC(C)=O [β-diketone 2] | 38 µM | 7.6 µM
2 | CC(=O)CC(=O)CCc1ccccc1 [β-diketone 3] | 0.43 µM | 1 µM
